Measured values taken from patent publication US5053070A, “Pyrimidine derivatives, preparation processes thereof, herbicide containing the same, and herbicidal compositions containing the same along with other active ingredient” (Mitsui Toatsu Chemicals, Incorporated, priority 1988, dated 1991).
Converted amounts (≈) assume the structure as drawn.

Assays:
[1] = test system: narrowleaf waterplantain; experiment: Petri dish test (Test 6); format: in vivo; conditions: 336 h; seeds on filter paper, 25° C., 14 days; read-out: I80 (ppm)
Protocol: A filter paper was placed in each glass-made Petri dish having a diameter of 9 cm. A compound dissolved in acetone was added in a predetermined amount. The filter paper was then dried in air to remove acetone. Seeds of narrowleaf waterplantain were placed on the filter paper and 10 ml of water were poured into the Petri dish. The seeds were allowed to grow at 25° C. in a bright room. Fourteen days later, the state of growth of narrowleaf water-plantain was observed.
In the table, the degree of damages of the test plant was determined by comparing the state of growth of the plant with that of the plant in an untreated group and is shown in accordance with the following standard: […]

[2] = test system: rice; experiment: Treatment of soil under submerged condition, post-emergence (Test 5), injury; format: in vivo; conditions: 30 g ai/a granule, 30 days later
Protocol: 1/5000-are Wagner pots were filled with soil. Seeds or tubers of barnyardgrass, Monochoria vaginalis, bulrush, Sagittaria pygmaea, Cyperus serroylnus and Eleocharis kuroguwai were seeded or planted under submerged condition. Two pairs of rice seedlings (2-3 leaf stage), which had been reared in advance, were transplanted to each pot and were allowed to grow in a green house. Each pair consisted of two rice seedlings. When the barnyardgrass grew to two-leaf stage, each pot was treated with a granule which had been prepared by processing a predetermined amount of the test composition in accordance with a similar method to the method described in Formulation Example 9. The state of emergence of weeds and the state of injury of rice were observed 30 days later.
In the table, the degrees of damages of the test plants and the degrees of injury of the rice are shown in a similar manner to Example 2.

[3] = test system: foxtail meadow; experiment: Upland foliar application test (Test 3); format: in vivo; conditions: 30 g ai/a, foliar spray at 2-3 leaves, 30th day
Protocol: (§1) Resin-made 1/10000-are pots were filled with the soil of an upland field. Redroot pigweed, common lambsquarters, foxtail meadow, johnsongrass, barnyardgrass, green foxtail, large crabgrass, soybean, peanut and cotton were separately seeded and were allowed to germinate in a green house. When each plant grew to the stage of 2-3 leaves, an emulsion formulated from a predetermined amount of each test compound in a similar manner to the method described in Formulation Example 11 was diluted with water to a predetermined dilution rate and then sprayed at an application rate equal to 5 l per are onto the foliage of each plant by means of a pressure-operated ULV (ultra low volume) sprayer. Influence to the crops and weeds were observed on the 30th day after the spray of the herbicides. The results are shown in Table 4 in which the degree of damages of each test plant and the degree of injury to each crop are shown in a similar manner to Test 2.

[4] = test system: redroot pigweed; experiment: Upland foliar application test (Test 3); format: in vivo; conditions: 30 g ai/a, foliar spray at 2-3 leaves, 30th day
Protocol: as §1

[5] = test system: barnyardgrass; experiment: Upland foliar application test (Test 3); format: in vivo; conditions: 30 g ai/a, foliar spray at 2-3 leaves, 30th day
Protocol: as §1

[6] = test system: green foxtail; experiment: Upland foliar application test (Test 3); format: in vivo; conditions: 30 g ai/a, foliar spray at 2-3 leaves, 30th day
Protocol: as §1

[7] = test system: large crabgrass; experiment: Upland foliar application test (Test 3); format: in vivo; conditions: 30 g ai/a, foliar spray at 2-3 leaves, 30th day
Protocol: as §1

[8] = test system: johnsongrass; experiment: Upland foliar application test (Test 3); format: in vivo; conditions: 30 g ai/a, foliar spray at 2-3 leaves, 30th day
Protocol: as §1

[9] = test system: common lambsquarters; experiment: Upland foliar application test (Test 3); format: in vivo; conditions: 30 g ai/a, foliar spray at 2-3 leaves, 30th day
Protocol: as §1

[10] = test system: cotton; experiment: Upland foliar application test (Test 3), crop injury; format: in vivo; conditions: 30 g ai/a, foliar spray at 2-3 leaves, 30th day
Protocol: as §1

[11] = test system: peanut; experiment: as above; format: in vivo; conditions: 30 g ai/a, foliar spray at 2-3 leaves, 30th day
Protocol: as §1

[12] = test system: soybean; experiment: as above; format: in vivo; conditions: 30 g ai/a, foliar spray at 2-3 leaves, 30th day
Protocol: as §1

[13] = test system: ALS (acetolactate syntase); experiment: ALS enzyme assay (Test 1); format: biochemical, barnyardgrass; conditions: 1,000 ppm (0.5 mg/0.5 ml)
Protocol: To determine the selectivity in enzyme level between crops and weeds, and ALS enzyme assay was conducted using pea as a representative of broadleaf crops and barnyardgrass as a representative of narrowleaf weeds.
After seeds of pea and barnyardgrass were allowed to germinate at 25° C. for 8-14 days in a dark place, partially-purified suspensions (Suspensions A) of acetolactate syntase were separately obtained from seedlings in accordance with the method described in the literature, Plant Physiology, 75, 827-831.
In a test tube, 0.5 mg of one of test compounds was weighed, followed by the addition of 0.15 ml of a 20 mM K2 HPO4 solution and 0.25 ml of a reaction substrate medium which consisted of 40 mM of K2 HPO4, 40 mM of sodium pyruvate, 1 mM of TPP, 1 mM of MgCl2 and 20 μM of FAD so that 0.4 ml of a reaction solution (Solution B) was prepared. Added to 0.4 ml of Solution B was 0.1 ml of suspension A. After the resultant mixture was shaken for 1 hour in a thermostat water bath controlled at 30° C., 50 μl of 6N sulfuric acid were added to terminate the reaction.
Next, the reaction-terminated liquid mixture was transferred into a thermostat water bath controlled at 60° C. and was heated for 15 minutes. Thereafter, 0.5 ml of a 0.5% creatine solution and 0.5 ml of a 5% alkaline α-naphthol solution were added, and the resultant mixture was maintained at 60° C. for 15 minutes. As a result, the test solution developed a pink-red color. After the above operation, the absorbance of the test solution at 525 nm was measured by a spectrophotometer (Absorbance 1 of Test Compound).
On the other hand, the absorbance (Absorbance 2 of Blank) of a solution obtained by subjecting a portion of Solution B, said portion being free of the test compound, to the above operation and the absorbance (Absorbance 3 of sulfuric acid terminated) of another solution obtained by subjecting another portion of Solution B, said portion containing 50 μl of 6N sulfuric acid as a test compound, were measured at the same time. Based on the values of the respective measurements, the enzyme assay at 1,000 ppm (0.5 mg/0.5 ml) of each compound was determined. [formula]

| Inhibitory activity (%) Barnyardgrass [13] [%] | SMILES | IC80 [1] [µg/mL] | Injury Rice [2] | Herbicidal effects Foxtail meadow [3] | Herbicidal effects Redroot pigweed [4] | Herbicidal effects Barnyardgrass [5] | Herbicidal effects Green foxtail [6] | Herbicidal effects Large crabgrass [7] | Herbicidal effects Johnsongrass [8] | Herbicidal effects Common lambsquarters [9] | Injury Cotton [10] | Injury Peanut [11] | Injury Soybean [12] |
| --- | --- | --- | --- | --- | --- | --- | --- | --- | --- | --- | --- | --- | --- |
| 95 | COc1cc(OC)nc(Oc2ccccc2C=NOCC=Cc2ccccc2)n1 [Compound No. 9] | 2 (≈ 5.11 µM) | 0 (91-100 (No damages)) | 5 (0-5 (Death)) | 5 (0-5 (Death)) | 5 (0-5 (Death)) | 5 (0-5 (Death)) | 5 (0-5 (Death)) | 5 (0-5 (Death)) | 4 (6-10 (Severe damages)) | 0 (91-100 (No damages)) | 0 (91-100 (No damages)) | 0 (91-100 (No damages)) |
| 97 | COc1cc(OC)nc(Oc2ccccc2C=NOCC=Cc2ccc(Cl)cc2Cl)n1 [compound 30] | 2 (≈ 4.34 µM) | 0 (91-100 (No damages)) | 5 (0-5 (Death)) | 5 (0-5 (Death)) | 5 (0-5 (Death)) | 5 (0-5 (Death)) | 5 (0-5 (Death)) | 5 (0-5 (Death)) | 4 (6-10 (Severe damages)) | 0 (91-100 (No damages)) | 0 (91-100 (No damages)) | 0 (91-100 (No damages)) |
| 92 | COc1cc(OC)nc(Oc2ccccc2C=NOCC=Cc2ccc(C)cc2)n1 [compound 36] | 4 (≈ 9.87 µM) | 1 (71-90 (Slight damages)) | 5 (0-5 (Death)) | 4 (6-10 (Severe damages)) | 5 (0-5 (Death)) | 5 (0-5 (Death)) | 5 (0-5 (Death)) | 5 (0-5 (Death)) | 4 (6-10 (Severe damages)) | 0 (91-100 (No damages)) | 0 (91-100 (No damages)) | 0 (91-100 (No damages)) |
| 43 | COc1cc(OC)nc(Oc2ccccc2C=NOCC=CCl)n1 [compound 11] | 40 (≈ 114 µM) | 0 (91-100 (No damages)) | 5 (0-5 (Death)) | 5 (0-5 (Death)) | 5 (0-5 (Death)) | 5 (0-5 (Death)) | 5 (0-5 (Death)) | 5 (0-5 (Death)) | 4 (6-10 (Severe damages)) | 0 (91-100 (No damages)) | 0 (91-100 (No damages)) | 0 (91-100 (No damages)) |
| 100 | COc1cc(OC)nc(Oc2ccccc2C=NOCC=Cc2ccccc2Cl)n1 [Compound No. 27] | 2 (≈ 4.7 µM) | 0 (91-100 (No damages)) | 5 (0-5 (Death)) | 5 (0-5 (Death)) | 4 (6-10 (Severe damages)) | 5 (0-5 (Death)) | 5 (0-5 (Death)) | 5 (0-5 (Death)) | 4 (6-10 (Severe damages)) | 0 (91-100 (No damages)) | 0 (91-100 (No damages)) | 0 (91-100 (No damages)) |

The remaining lines, values behind:

| SMILES | Inhibitory activity (%) Barnyardgrass [13] [%] | IC80 [1] [µg/mL] | Injury Rice [2] | Herbicidal effects Foxtail meadow [3] | Herbicidal effects Redroot pigweed [4] | Herbicidal effects Barnyardgrass [5] | Herbicidal effects Green foxtail [6] | Herbicidal effects Large crabgrass [7] | Herbicidal effects Johnsongrass [8] | Herbicidal effects Common lambsquarters [9] | Injury Cotton [10] | Injury Peanut [11] | Injury Soybean [12] |
| --- | --- | --- | --- | --- | --- | --- | --- | --- | --- | --- | --- | --- | --- |
| COc1cc(OC)nc(Oc2ccccc2C=NOCc2cccc(C)c2)n1 [compound 20] | 58 | 100 (≈ 264 µM) | 0 (91-100 (No damages)) | 5 (0-5 (Death)) | 5 (0-5 (Death)) | 5 (0-5 (Death)) | 5 (0-5 (Death)) | 5 (0-5 (Death)) | 5 (0-5 (Death)) | 4 (6-10 (Severe damages)) | 0 (91-100 (No damages)) | 0 (91-100 (No damages)) | 0 (91-100 (No damages)) |
| COc1cc(OC)nc(Oc2ccccc2C=NOC(C)c2ccccc2)n1 (stereo not drawn) [compound 21] | 26 | 100 (≈ 264 µM) | 0 (91-100 (No damages)) | 3 (11-40 (Medium damages)) | 3 (11-40 (Medium damages)) | 3 (11-40 (Medium damages)) | 4 (6-10 (Severe damages)) | 4 (6-10 (Severe damages)) | 5 (0-5 (Death)) | 3 (11-40 (Medium damages)) | 0 (91-100 (No damages)) | 0 (91-100 (No damages)) | 0 (91-100 (No damages)) |
| COc1cc(OC)nc(Oc2ccccc2C=NO)n1 [Compound No. 24, 2-(4,6-dimethoxy-2-pyrimidinyloxy)-benzaloxime] | 36 | 100 (≈ 363 µM) | 1 (71-90 (Slight damages)) | 4 (6-10 (Severe damages)) | 3 (11-40 (Medium damages)) | 4 (6-10 (Severe damages)) | 4 (6-10 (Severe damages)) | 4 (6-10 (Severe damages)) | 5 (0-5 (Death)) | 3 (11-40 (Medium damages)) | 1 (71-90 (Slight damages)) | 0 (91-100 (No damages)) | 1 (71-90 (Slight damages)) |
| COc1cc(OC)nc(Oc2ccccc2C=NOC(C)C)n1 [compound 6] | 17 | 40 (≈ 126 µM) | 0 (91-100 (No damages)) | 5 (0-5 (Death)) | 4 (6-10 (Severe damages)) | 4 (6-10 (Severe damages)) | 5 (0-5 (Death)) | 3 (11-40 (Medium damages)) | 5 (0-5 (Death)) | 4 (6-10 (Severe damages)) | 0 (91-100 (No damages)) | 0 (91-100 (No damages)) | 0 (91-100 (No damages)) |
